Source: publication PMC8158687, “Xanthones Active against Multidrug Resistance and Virulence Mechanisms of Bacteria” (Antibiotics, 2021)

What follows are compounds tested on S. aureus 272123 (assay: Efflux pump inhibition assay (real-time ethidium bromide accumulation)). Conditions: compound 50 µM, EB 1 µg/mL, minute 60.
Format: cell-based, Staphylococcus aureus
Procedure: Compounds 1–20 were assessed for their capability of modulating ethidium bromide (EB) accumulation on two resistant strains. […] However, norA is a core gene of the S. aureus as a species, which means that the NorA pump occurs in all S. aureus strains.
(§1) Salmonella enterica serovar Typhimurium SE03, was used as a Gram-negative bacterium. This strain has a deletion of the acrA gene, which was predicted with the least affinity for the compounds. The aim of these studies was to perform a first screening of these compounds and their ability to modulate the efflux of EB. […] The relative fluorescence index (RFI) was calculated based on the means of relative fluorescence units, depicted in Table 2.
(§2) Compounds 1–20 were evaluated for their ability to inhibit efflux pumps in SE03 and S. aureus 272123 strains, through the real-time fluorimetry, monitoring the intracellular accumulation of EB, an efflux pump substrate. This was determined by the automated method using a CLARIOstar Plus plate reader (BMG Labtech, Ortenberg, Germany). Reserpine and CCCP were applied at 25 µM as positive controls, and the solvent DMSO was applied at 1% v/v. The bacterial strains were incubated in an appropriate culture media (TSB—S. aureus 272123; LB-B—SE03) at 37 °C until they reached an optical density (OD) between 0.4 and 0.6 at λ = 600 nm. The culture was centrifuged at 13,000× g for 3 min, and the pellet washed and resuspended with PBS. The suspension was centrifuged again in the same conditions and resuspended in PBS. The compounds were applied at 50 µM in a solution of a non-toxic concentration of EB (1 µg/mL) in PBS. Then, 50 µL of this solution were transferred into a 96-well black microtiter plate (Greiner Bio-One Hungary Kft, Mosonmagyaróvár, Fertősor, Hungary), and 50 µL of bacterial suspension (OD600 0.4–0.6) were added to each well. The plates were placed into the CLARIOstar plate reader, and the fluorescence was monitored at excitation and emission wavelengths of 530 nm and 600 nm every minute for one hour on a real-time basis. From the real-time data, the activity of the compounds, namely the RFI of the last time point (minute 60) of the EB accumulation assay, was calculated according to the following formula:(1) RFI=RFtreated−RFuntreated/RFuntreated where RFtreated is the relative fluorescence (RF) at the last time point of EB accumulation curve in the presence of the compound, and RFuntreated is the RF at the last time point of the EB accumulation curve of the untreated control, having only the solvent (DMSO) control. The accumulation curves were designed using Microsoft Excel®.

SMILES	RFI ± SD (relative fluorescence index)
O=c1c2ccccc2oc2c(O)cccc12 [Compound 1]	−0.36 ± 0.03 ^1
O=c1c2ccccc2oc2ccc(O)c(O)c12 [Compound 3]	−0.05 ± 0.06 ^3
Cc1c(O)cc2oc3ccccc3c(=O)c2c1O [Compound 5]	0.16 ± 0.08 ^2
Cc1cc(O)c(O)c2oc3ccccc3c(=O)c12 [Compound 6]	−0.91 ± 0.01 ^4
Cc1cc(O)c(O)c2oc3cc(O)ccc3c(=O)c12 [Compound 7]	−0.92 ± 0.00 ^5
COc1cc(C)c2c(=O)c3ccccc3oc2c1OC [Compound 8]	0.15 ± 0.25 ^4
COc1c(Cl)c(C)c2c(=O)c3ccccc3oc2c1OC [Compound 9]	−0.04 ± 0.26 ^4
COc1ccc2c(=O)c3c(C)cc(OC)c(OC)c3oc2c1 [Compound 10]	0.18 ± 0.20 ^5
COc1ccc2c(=O)c3c(CBr)cc(OC)c(OC)c3oc2c1 [Compound 13]	0.53 ± 0.20 ^5

What follows are compounds tested on SE03 (acrA gene-inactivated Salmonella enterica serovar Typhimurium SL1344) in the same assay as above. Conditions: compound 50 µM, EB 1 µg/mL, minute 60.
Format: cell-based
Procedure: as §1, §2

SMILES	RFI ± SD (relative fluorescence index)
O=c1c2ccccc2oc2c(O)cccc12 [Compound 1]	−0.01 ± 0.05 ^6
O=c1c2ccccc2oc2ccc(O)c(O)c12 [Compound 3]	0.23 ± 0.04 ^8
Cc1c(O)cc2oc3ccccc3c(=O)c2c1O [Compound 5]	1.74 ± 0.22 ^7
Cc1cc(O)c(O)c2oc3ccccc3c(=O)c12 [Compound 6]	−0.91 ± 0.01 ^9
Cc1cc(O)c(O)c2oc3cc(O)ccc3c(=O)c12 [Compound 7]	−0.87 ± 0.02 ^10
COc1cc(C)c2c(=O)c3ccccc3oc2c1OC [Compound 8]	0.05 ± 0.11 ^9
COc1c(Cl)c(C)c2c(=O)c3ccccc3oc2c1OC [Compound 9]	0.05 ± 0.09 ^9
COc1ccc2c(=O)c3c(C)cc(OC)c(OC)c3oc2c1 [Compound 10]	0.24 ± 0.05 ^10
COc1ccc2c(=O)c3c(CBr)cc(OC)c(OC)c3oc2c1 [Compound 13]	1.16 ± 0.64 ^10

What follows are compounds tested on S. aureus 272123 (assay: Inhibition of biofilm formation (crystal violet)). Conditions: half the MIC, or 100 µM if MIC >100 µM, 48 h, 30 °C.
Format: cell-based, Staphylococcus aureus
Procedure: The biofilm inhibition, presented in percentages (%), was calculated based on the mean of absorbance units.
The bacterial strains used were the Gram-positive S. aureus ATCC 25923 and S. aureus 272123. The detection of the biofilm formation was possible with the use of the dye crystal violet (CV; 0.1% v/v). The initial inoculum was incubated in TSB overnight, and then diluted to an OD600 of 0.1. Then, the bacterial suspension was added to 96-well microtiter plates and the compounds were added at half the MIC. […] The final volume in each well was 200 µL. […] The plates were incubated at 30 °C for 48 h, with gentle stirring (100 rpm). After this incubation period, the TSB medium was discarded, and the plates were washed with tap water to remove unattached cells. Afterwards, 200 µL of a 0.1% v/v CV solution were added to the wells and incubated for 15 min at room temperature. Then, the CV solution was removed from the wells, and the plates were washed again with tap water, and 200 µL of a 70% ethanolic solution were added to the wells. The biofilm formation was determined by measuring the OD600 using a Multiscan EX ELISA plate reader (Thermo Labsystems, Cheshire, WA, USA). The anti-biofilm effect of the compounds was expressed as the percentage (%) of decrease in biofilm formation.

SMILES	Inhibition of Biofilm Formation (%) ± SD
Cc1c(O)cc2oc3ccccc3c(=O)c2c1O [Compound 5]	61.62 ± 16.51 ^3%

These compounds were tested on S. aureus ATCC 29213 (assay: Inhibition of biofilm formation (crystal violet)). Conditions: half the MIC, or 100 µM if MIC >100 µM, 48 h, 30 °C.
Format: cell-based, Staphylococcus aureus

SMILES	Inhibition of Biofilm Formation (%) ± SD
Cc1c(O)cc2oc3ccccc3c(=O)c2c1O [Compound 5]	0 ^1%

These compounds were tested on Serratia marcescens AS-1 (assay: Quorum sensing inhibition assay (disk, pigment production)). Conditions: AS1, read-out: Quorum Sensing Inhibition (mm) ± SD.
Format: cell-based
From the text: (§3) The sensor strain Chromobacterium violaceum CV026 and the acyl-homoserine lactones (AHLs) producer strain Sphingomonas paucimobilis Ezf 10-17 (EZF) were inoculated as parallel lines, and the AHL producers, Chromobacterium violaceum wild type 85 (wt85) and Serratia marcescens AS-1 were inoculated as a single line.
(§4) For the QS tests, all the bacteria used were Gram-negative. The bacteria used were Chromobacterium violaceum wild type 85 (wt85), characterized by the AHL signal molecule-mediated production of the purple violacein pigment, capable of endogenous QS-signal molecule production (N-hexanoyl-L-HSL), C. violaceum CV026 (CV026), a Tn5 transposase-mutant, AHL-signal molecule indicator strain (produces purple violacein pigment in the presence of AHL), which is incapable of endogenous QS-signal molecule-production, but useful in the detection of external stimuli, Sphingomonas paucimobilis Ezf 10-17 (EZF), AHL-producing-strain (used with C. violaceum CV026), and Serratia marcescens AS-1, characterized by the AHL signal molecule-mediated production of the orange–red pigment prodigiosin (2-methyl-3-pentyl-6-methoxyprodigiosin), capable of endogenous QS-signal molecule production (N-hexanoyl-L-HSL), were applied.
(§5) The QS inhibitory effect of the compounds was examined on the EZF and the sensor CV026 strains, on the wt85 strain, and on S. marcescens, for 4, 5, 11, 12, 16, 19, and 20. The method used was the parallel inoculation method, where pair combinations of the used sensor strain CV026 and the N-acyl-homoserine lactone (AHL)-producing strain EZF were inoculated directly onto the LB*-A agar surface in parallel, at an approximate distance of 5 mm from each other. S. marcescens AS-1 and wt85 were inoculated as a single line. Filter paper disks (7 mm in diameter) were placed on the center of the inoculated line(s) and impregnated with 8 µL of a solution of 10 mM of the compounds. […] The agar plates were incubated at room temperature (20 °C) for 24–48 h. The QS inhibition was accessed visually, through the inhibition of pigment production. The discolored, but intact, bacterial colonies were measured with a ruler.

SMILES	zone of inhibition at 10000 µM
Cc1c(O)cc2oc3ccccc3c(=O)c2c1O [Compound 5]	0 mm

The compounds below were run on Chromobacterium violaceum wild type 85 (wt85) in the same assay as above. Conditions: read-out: Quorum Sensing Inhibition (mm) ± SD.
Format: cell-based
From the text: as §3, §4, §5

SMILES	zone of inhibition at 10000 µM
Cc1c(O)cc2oc3ccccc3c(=O)c2c1O [Compound 5]	0 mm

These compounds were tested on EZF + CV026 (Sphingomonas paucimobilis Ezf 10-17 + Chromobacterium violaceum CV026) (assay: Quorum sensing inhibition assay (parallel inoculation, pigment production)). Conditions: read-out: Quorum Sensing Inhibition (mm) ± SD.
Format: cell-based
From the text: as §3, §4, §5

SMILES	zone of inhibition at 10000 µM
Cc1c(O)cc2oc3ccccc3c(=O)c2c1O [Compound 5]	0 mm
